According to article PMC10363080, “Modulatory Effect of Pyrus pyrifolia Fruit and its Phenolics on Key Enzymes against Metabolic Syndrome: Bioassay-Guided Approach, HPLC Analysis, and In Silico Study” (Plant Foods for Human Nutrition (Dordrecht, Netherlands), 2023):

Assays:
xanthine oxidase (XO) = xanthine oxidase (XO) (Bos taurus, UniProt P80457); assay: Xanthine oxidase (XO) inhibitory activity; type: biochemical; settings: isolated compounds, Table S7; read-out: Inhibition (IC50) XO
Description: all of analytical grade. […]
(§1) Phenolic acids and flavonoids used in HPLC analysis as well as all other reagents for biological investigations were obtained from Sigma Chemical Company […]
(§2) Inhibitory activity against key enzymes related to metabolic syndrome (MS) All assays were performed in 96-well plates. Stock solutions of the extract (100 mg/mL), fractions (100 mg/mL), and isolated compounds (1000 µM) were prepared. Tested samples that exceeded […]
(§3) inhibitory concentration (IC50). The percentage of enzyme inhibition was calculated according to […]

ACE1 = ACE1 (Homo sapiens, UniProt P12821); assay: Angiotensin conversion enzyme (ACE) inhibitory activity (HHL substrate); type: biochemical; settings: isolated compounds, Table S7; read-out: Inhibition (IC50) ACE1
Sequence of ACE1 (P12821 30-1232): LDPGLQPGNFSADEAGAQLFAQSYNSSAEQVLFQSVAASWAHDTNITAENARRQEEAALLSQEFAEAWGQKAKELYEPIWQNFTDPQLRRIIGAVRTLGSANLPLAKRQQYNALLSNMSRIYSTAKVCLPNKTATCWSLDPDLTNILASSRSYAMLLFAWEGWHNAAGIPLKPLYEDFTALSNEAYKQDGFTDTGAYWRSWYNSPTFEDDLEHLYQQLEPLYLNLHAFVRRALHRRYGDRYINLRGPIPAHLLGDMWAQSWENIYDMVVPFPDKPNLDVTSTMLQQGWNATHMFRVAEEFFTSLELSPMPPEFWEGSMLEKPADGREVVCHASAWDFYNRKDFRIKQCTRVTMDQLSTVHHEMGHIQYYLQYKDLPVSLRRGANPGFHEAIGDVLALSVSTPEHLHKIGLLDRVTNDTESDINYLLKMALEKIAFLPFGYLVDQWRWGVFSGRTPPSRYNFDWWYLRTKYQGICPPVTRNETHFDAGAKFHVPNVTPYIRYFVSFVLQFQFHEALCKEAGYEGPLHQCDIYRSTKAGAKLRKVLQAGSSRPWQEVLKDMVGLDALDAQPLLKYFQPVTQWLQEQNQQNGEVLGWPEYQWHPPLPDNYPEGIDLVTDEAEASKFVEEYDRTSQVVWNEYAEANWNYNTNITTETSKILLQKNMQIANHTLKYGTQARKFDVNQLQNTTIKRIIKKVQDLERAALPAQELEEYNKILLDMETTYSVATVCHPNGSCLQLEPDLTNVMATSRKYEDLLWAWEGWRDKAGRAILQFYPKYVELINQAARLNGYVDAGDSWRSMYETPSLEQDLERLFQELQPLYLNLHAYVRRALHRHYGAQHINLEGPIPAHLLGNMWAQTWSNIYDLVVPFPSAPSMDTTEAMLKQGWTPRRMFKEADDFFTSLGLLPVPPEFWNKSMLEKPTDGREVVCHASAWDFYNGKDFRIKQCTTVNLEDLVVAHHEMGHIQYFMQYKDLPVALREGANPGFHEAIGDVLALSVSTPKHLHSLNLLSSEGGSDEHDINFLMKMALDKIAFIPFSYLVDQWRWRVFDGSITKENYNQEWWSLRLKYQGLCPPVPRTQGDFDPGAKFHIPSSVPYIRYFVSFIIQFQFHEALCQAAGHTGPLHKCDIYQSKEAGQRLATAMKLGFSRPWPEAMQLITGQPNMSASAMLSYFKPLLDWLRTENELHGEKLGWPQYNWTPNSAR
Description: as §1, §2, §3
% Inhibition = (A−B) − (C−D) x 100 […]
Pancreatic lipase inhibitory activity […]

Sequence of xanthine oxidase (XO) (P80457 2-1332): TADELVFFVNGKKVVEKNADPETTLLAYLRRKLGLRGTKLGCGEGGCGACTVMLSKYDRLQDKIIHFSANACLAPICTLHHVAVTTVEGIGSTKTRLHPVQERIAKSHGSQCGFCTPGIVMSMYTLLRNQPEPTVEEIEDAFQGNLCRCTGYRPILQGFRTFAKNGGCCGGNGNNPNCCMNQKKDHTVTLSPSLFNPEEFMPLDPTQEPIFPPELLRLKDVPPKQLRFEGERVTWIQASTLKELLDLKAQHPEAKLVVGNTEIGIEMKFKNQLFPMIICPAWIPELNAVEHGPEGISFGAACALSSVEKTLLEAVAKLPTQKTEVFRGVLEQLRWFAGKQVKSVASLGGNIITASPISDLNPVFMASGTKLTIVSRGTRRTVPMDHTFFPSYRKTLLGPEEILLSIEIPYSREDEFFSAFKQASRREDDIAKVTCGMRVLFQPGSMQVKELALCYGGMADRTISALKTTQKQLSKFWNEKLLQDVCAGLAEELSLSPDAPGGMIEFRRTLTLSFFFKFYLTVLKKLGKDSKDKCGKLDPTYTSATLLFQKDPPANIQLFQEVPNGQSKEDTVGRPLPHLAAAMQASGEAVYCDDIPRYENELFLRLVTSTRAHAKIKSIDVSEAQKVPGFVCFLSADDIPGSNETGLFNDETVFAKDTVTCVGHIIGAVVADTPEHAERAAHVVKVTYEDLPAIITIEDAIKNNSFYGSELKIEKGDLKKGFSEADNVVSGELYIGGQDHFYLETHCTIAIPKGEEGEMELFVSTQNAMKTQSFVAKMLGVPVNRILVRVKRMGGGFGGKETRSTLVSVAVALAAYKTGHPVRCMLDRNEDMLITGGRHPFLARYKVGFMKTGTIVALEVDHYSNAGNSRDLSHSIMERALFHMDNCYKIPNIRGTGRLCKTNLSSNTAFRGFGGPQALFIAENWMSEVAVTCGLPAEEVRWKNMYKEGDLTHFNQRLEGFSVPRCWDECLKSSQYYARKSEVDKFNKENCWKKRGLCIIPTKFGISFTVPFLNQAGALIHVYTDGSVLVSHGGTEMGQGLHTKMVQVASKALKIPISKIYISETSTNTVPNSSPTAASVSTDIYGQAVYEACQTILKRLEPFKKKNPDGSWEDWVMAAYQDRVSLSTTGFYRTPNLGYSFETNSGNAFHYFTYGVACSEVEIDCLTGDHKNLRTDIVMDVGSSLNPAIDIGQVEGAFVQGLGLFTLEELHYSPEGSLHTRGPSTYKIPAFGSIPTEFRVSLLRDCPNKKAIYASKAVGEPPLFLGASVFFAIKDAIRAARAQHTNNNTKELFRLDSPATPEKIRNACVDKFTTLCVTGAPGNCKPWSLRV

COc1cc(-c2oc3cc(O)cc(O)c3c(=O)c2O[C@@H]2O[C@H](CO)[C@@H](O)[C@H](O)[C@H]2O)ccc1O [P3, isorhamnetin-3-O-β-D-glucopyranoside] was tested, and the IC50 (xanthine oxidase (XO)) was 3.56 ± 0.83 µM and the IC50 (ACE1) was 0.31 ± 0.86 µM.
